# Measured values reported in article PMC9161086, “Water-Soluble Trichogin GA IV-Derived Peptaibols Protect Tomato Plants From Botrytis cinerea Infection With Limited Impact on Plant Defenses” (Frontiers in Plant Science, 2022).
# Columns and labels:
# [1] = test system: Solanum lycopersicum cv. Micro-Tom leaves; experiment: ROS detection with H2DCFDA on tomato leaves; conditions: 50 μM in water, 10-μl droplets on abaxial surface of detached Micro-Tom leaves; 24 and 48 h; H2DCFDA fluorescence microscopy
# [2] = Hydrophilicity evaluated from HPLC retention times; assay type: physicochemical; conditions: comparison to native Trichogin GA IV, C18 column Phenomenex Jupiter 5 μm, 300 Å, 250 × 4.5 mm, gradient 60%–100% B in 30 min, A H2O/CH3CN 9:1 0.05% TFA, B CH3CN/H2O 9:1 0.05% TFA
# [3] = parameters: method as in De Zotti et al., 2009; conditions: ref De Zotti et al., 2009; cited from earlier work
# [4] = test system: methicillin-resistant human pathogens; conditions: ref De Zotti et al., 2009; cited from earlier work
Molecule,ROS production on tomato leaves [1],Hydrophilicity [2],Resistance to proteolysis [3],Antibacterial activity against methicillin-resistant human pathogens [4]
CCCCCCCC(=O)NC(C)(C)C(=O)NCC(=O)N[C@@H](CC(C)C)C(=O)NC(C)(C)C(=O)N[C@@H](CCCCN)C(=O)NC(C)(C)C(=O)N[C@@H](CC(C)C)C(=O)NC(C)(C)C(=O)NCC(=O)N[C@H](C(=O)N[C@@H](CC(C)C)C(N)=O)[C@@H](C)CC [Pep 6r],only Pep 4-treated leaves showed ROS production,+,–,–
"1-octanoyl-Aib-Gly-Leu-Aib-Gly-Gly-Leu-Aib-Gly-Ile-Lol [Trichogin GA IV, 11-residue lipopeptaibol naturally produced by Trichoderma longibrachiatum]",–,–,remarkable resistance to proteolysis,antibacterial activity
